# In patent US20060154948A1, “Treating allergic and inflammatory conditions” (priority 2005, published 2006):
# System: seasonal allergic rhinitis
# Assay: Double-blinded, randomized clinical trials in seasonal allergic rhinitis patients
# Method: Efficacy endpoints in all the studies were Total Symptom Score, Total Nasal Symptom Score, Total Non-nasal Symptom Score, and Health Quality of Life (HQOL) analysis in efficacy trials. […] This parameter measures the total symptom relief by the patient after 24 hours before taking the next day dose.
smiles,measurement,setting,value
"Clc1ccc2c(c1)CCc1cccnc1C2=C1CCNCC1 [Desloratadine, desloratadine]",Total symptom scores,"5 mg once daily, adult and adolescent seasonal allergic rhinitis patients",significantly reduced
same,Reduction of nasal symptoms versus placebo,"5 mg, seasonal allergic rhinitis patients",significantly (p<0.01) more effective than placebo
same,AM NOW total symptom score,"24 hours after dose, over the entire dosage range",Statistically significant (p<0.05) reductions were maintained for the full 24 hour dosing interval
